In PubChem BioAssay (NCI) one finds TGI and GI50 data, which are given here for 13 molecules.

Holding throughout (test): NCI tumour cell line growth inhibition, 48 h
Experiment [1] relates to HOP-18 NSCLC.
Experiment [2] has as its system PC-3 prostate.
The test system of experiment [3] is T-47D breast.
Experiment [4] relates to RXF-631 renal.
Experiment [5] relates to P388 leukemia.
Experiment [6] relates to P388/ADR leukemia.
Experiment [7] deals with SN12K1 renal.

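Results reflect a 48-hour exposure of cells in 96-well plates to compound at five concentrations. Here, GI50 denotes the concentration required for 50% inhibition of growth. TGI: concentration producing complete growth inhibition.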

As for `C=C(CN(C)C)C(=O)c1cc(C)ccc1C`, the TGI in experiment [1] is 11.6 µM; in experiment [2], 28.2 µM; in experiment [3], 15.7 µM.
For the molecule `COc1ccc2c[n+](C)c3c4cc(OC)c(OC)cc4ccc3c2c1`, the TGI is more than 96.1 µM in experiment [1], 16.2 µM in experiment [2], 46.9 µM in experiment [4] and 18.9 µM in experiment [3].
In the case of `O=C(N1CCC(CN=c2cc3n(-c4ccc(Cl)cc4)c4ccccc4nc-3cc2Nc2ccc(Cl)cc2)CC1)N1CC1`, in experiment [2], the GI50 was 1.63 µM and the TGI was found to be 3.38 µM. Also, in experiment [3], the GI50 is 2.41 µM and the TGI is 5.91 µM.
`COc1cccc(C2C(C(=O)O)=C(CO)Oc3cc4c(cc32)OCO4)c1` (stereo unspecified) showed a TGI in experiment [1] of more than 100 µM.
The molecule `CCN(CC)CCC(=O)c1ccccc1` had a TGI in experiment [1] of 30.1 µM.
`CCOC(=O)C1(C(=O)OCC)CSC1`: the TGI in experiment [2] and in experiment [3] was more than 100 µM in each case.
As for `CCSc1nc(N2CCCCC2)c2cn[nH]c2n1`, in experiment [2], the GI50 is 20.7 µM and the TGI is 79.1 µM. Further, in experiment [3], the GI50 is 16 µM and the TGI was 62.4 µM.
In the case of `c1ccc(SC(Sc2ccccc2)c2ccc3c(c2)OCO3)cc1`, the TGI in experiment [2] and in experiment [3] was more than 100 µM in each case.
In turn, `CCOc1ccc(N=Nc2ccc3oc(=O)c(/C(C)=N\NC(=O)CC(=O)Nc4ccc(Cl)cc4)cc3c2)cc1` had a TGI in experiment [4] of 45.5 µM.
In the case of `CC(=O)[O-].[Ni].c1ccc(/C(=N\Nc2ccccn2)c2ccccn2)cc1`, the GI50 in experiment [1] is 2.81 µM. Besides, the TGI in experiment [1] is more than 100 µM; in experiment [2], 19.9 µM; in experiment [3], 15.6 µM.
Take `O=C(O)c1cncc(C(=O)O)c1`: the TGI in experiment [2] and in experiment [3] was more than 100 µM throughout.
Regarding `COc1ccc2c(c1)O[C@H]1c3ccc(O)cc3OC[C@@H]21`, the TGI in experiment [1] and in experiment [4] was more than 100 µM throughout.
With `O=c1[nH]cc(N(CCCl)CCCl)c(=O)[nH]1`, the TGI in experiment [1] amounted to 199 µM; in experiment [5], 66.7 µM; in experiment [6] it was 70 µM; in experiment [2], 188 µM; in experiment [7], 172 µM; in experiment [3] it was 183 µM.
